Data: paper PMC7377239, “Cardiovascular Effects of Polychlorinated Biphenyls and Their Major Metabolites” (Environmental Health Perspectives, 2020)
Structures can show the parent of a compound that is named as a salt. Where two headings read alike, the source gives them in different places.

How the values were obtained:
[1] = system: iCell endothelial cells (human iPSC-derived ECs); assay: High-content imaging cytotoxicity in iCell endothelial cells, 24 h; assay type: cell-based; settings: Homo sapiens, Endothelial cell, iPSC-EC, 24 hr; for viability at 0.1 µM / activity at 0.1 µM: 0.10 µM; for minimal effective concentration: top concentration 100.00 µM
Procedure, shortened: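 Readouts were vehicle-normalised and fitted to a four-parameter logistic model. POD was set at one SD beyond 0.5% DMSO control means, and 100 µM was assigned when no response was seen. Cells were monolayers of iCell endothelial cells imaged after 24 h compound exposure using nuclear, mitochondrial and calcein dyes.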

HUVECs = assay: High-content imaging cytotoxicity in HUVECs, 24 h; assay type: cell-based, human; settings: Homo sapiens, HUVEC, 24 h, HUVECs; for viability at 0.01 µM / activity at 0.01 µM / viability at 0.1 µM / activity at 0.1 µM / viability at 1 µM / activity at 1 µM / viability at 10 µM / activity at 10 µM / viability at 100 µM / activity at 100 µM: 0.00 µM = 100.00; for viability at 0.1 µM / activity at 0.1 µM: 0.10 µM; for minimal effective concentration: top concentration 100.00 µM
Procedure, shortened: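 Point-of-departure values come from four-parameter logistic fits of vehicle-normalized (0.5% DMSO) imaging readouts, cutoff one SD of vehicle means, 100μM where no concentration–response. Cells: HUVEC monolayers, passages 1–5, treated 24 h at 37°C, 5% CO2, then Hoechst 33342/MitoTracker Orange/calcein AM stained, imaged at 10×.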

[2] = 0.00 µM control = 100.00, read-out: endo.cyto.24hr
[3] = 0.00 µM control = 100.00, read-out: endo.mito.24hr
[4] = 0.00 µM control = 100.00, read-out: endo.mitoint.24hr
[5] = 0.00 µM control = 100.00, read-out: endo.nma.24hr
[6] = 0.00 µM control = 100.00, read-out: endo.tc.24hrs
[7] = 24 hr, read-out: huvec.cyto.24hr
[8] = 24 hr, read-out: huvec.mito.24hr
[9] = 24 hr, read-out: huvec.mitoint.24hr
[10] = 24 hr, read-out: huvec.nma.24hr
[11] = 24 hrs, read-out: huvec.tc.24hrs

O=S(=O)(O)Oc1cc(-c2ccccc2)ccc1Cl [3-yl PCB 3 sulfate]
viability at 0.01 µM [1, 2]: 93.7%
activity at 0.01 µM [1, 3]: 93.8%
activity at 0.01 µM [1, 4]: 120%
activity at 0.01 µM [1, 5]: 104%
viability at 0.01 µM [1, 6]: 93.7%
viability at 0.1 µM [1, 2]: 93%
activity at 0.1 µM [1, 3]: 93.3%
activity at 0.1 µM [1, 4]: 105%
activity at 0.1 µM [1, 5]: 104%
viability at 0.1 µM [1, 6]: 93%
viability at 1 µM [1, 2]: 102%
activity at 1 µM [1, 3]: 103%
activity at 1 µM [1, 4]: 104%
activity at 1 µM [1, 5]: 97.9%
viability at 1 µM [1, 6]: 102%
viability at 10 µM [1, 2]: 96.5%
activity at 10 µM [1, 3]: 96.5%
activity at 10 µM [1, 4]: 104%
activity at 10 µM [1, 5]: 99.6%
viability at 10 µM [1, 6]: 96.5%
viability at 100 µM [1, 2]: 96.6%
activity at 100 µM [1, 3]: 96.5%
activity at 100 µM [1, 4]: 98.4%
activity at 100 µM [1, 5]: 99.8%
viability at 100 µM [1, 6]: 96.6%
minimal effective concentration ([1]; read-out: endo.cyto.24hr POD): 100 µM
minimal effective concentration ([1]; read-out: endo.mito.24hr POD): 100 µM
minimal effective concentration ([1]; read-out: endo.mitoint.24hr POD): 100 µM
minimal effective concentration ([1]; read-out: endo.nma.24hr POD): 100 µM
minimal effective concentration ([1]; read-out: endo.tc.24hrs POD): 100 µM
viability at 0.01 µM (HUVECs; [7]): 78.2%
activity at 0.01 µM (HUVECs; [8]): 77.8%
activity at 0.01 µM (HUVECs; [9]): 93.6%
activity at 0.01 µM (HUVECs; [10]): 96.6%
viability at 0.1 µM (HUVECs; [7]): 95.5%
activity at 0.1 µM (HUVECs; [8]): 95.5%
activity at 0.1 µM (HUVECs; [9]): 110%
activity at 0.1 µM (HUVECs; [10]): 102%
viability at 1 µM (HUVECs; [7]): 95.1%
activity at 1 µM (HUVECs; [8]): 94%
activity at 1 µM (HUVECs; [9]): 93.8%
activity at 1 µM (HUVECs; [10]): 95.5%
viability at 10 µM (HUVECs; [7]): 91.1%
activity at 10 µM (HUVECs; [8]): 89.7%
activity at 10 µM (HUVECs; [9]): 80.7%
activity at 10 µM (HUVECs; [10]): 93.3%
viability at 100 µM (HUVECs; [7]): 98.8%
activity at 100 µM (HUVECs; [8]): 97.9%
activity at 100 µM (HUVECs; [9]): 105%
activity at 100 µM (HUVECs; [10]): 96%
minimal effective concentration (HUVECs; 24 hr, read-out: huvec.cyto.24hr POD): 100 µM
minimal effective concentration (HUVECs; 24 hr, read-out: huvec.mito.24hr POD): 100 µM
minimal effective concentration (HUVECs; 24 hr, read-out: huvec.mitoint.24hr POD): 100 µM
minimal effective concentration (HUVECs; 24 hr, read-out: huvec.nma.24hr POD): 100 µM
viability at 0.01 µM (HUVECs; [11]): 78.4%
viability at 0.1 µM (HUVECs; [11]): 95.5%
viability at 1 µM (HUVECs; [11]): 95.1%
viability at 10 µM (HUVECs; [11]): 91.1%
viability at 100 µM (HUVECs; [11]): 98.8%
minimal effective concentration (HUVECs; 24 hrs, read-out: huvec.tc.24hrs POD): 100 µM
